From patent US12391671B2, “Allosteric EGFR inhibitors and methods of use thereof” (Dana-Farber Cancer Institute, Inc., priority 2019, dated 2025)
Structures can show the parent of a compound that is named as a salt. Where two headings read alike, the source gives them in different places.

Key:
EGFR L858R/T790M = EGFR L858R/T790M (Homo sapiens (Human), UniProt P00533, L858R/T790M); assay: HTRF-based EGFR biochemical assay (L858R/T790M); settings: 100 μM ATP, enzyme 0.02 nM
Method: (§1) Example 25: HTRF-Based EGFR Biochemical Assays
(§2) EGFR biochemical activity measurements were carried out using the homogeneous time-resolved fluorescence (HTRF) assay (Cisbio), inhibitors and DMSO normalizations were first dispensed to empty black low-volume 384-well plates (Corning) with 0300 digital liquid dispenser (HP). All reactions were carried out at room temperature and solutions were added to plates with a Multidrop Combi Reagent Dispenser (ThermoFisher). The reaction mixture (10 μL final volume) contained 1 μM tyrosine kinase peptide-biotin substrate and mutant EGFR in a reaction buffer (50 mM HEPES pH 7.0, 5 mM MgCl2, 1 mM MnCl2, 0.01% BSA, 2 mM TCEP, 0.1 mM NaVO4). Enzyme concentrations were adjusted to accommodate varying kinase activities (L858R 0.1 nM, L858R/T790M 0.02 nM). Enzyme reaction solution (2× concentrations, 5 μL) was added to 384-well plates containing compounds and incubated for 30 mins. Enzyme reactions were initiated with the addition of 5 μL of ATP to a final concentration of 100 μM and reacted for 20 mins. Reactions were quenched with the addition of 10 μL of phospho-tyrosine antibody-Europium(III) cryptate (1-to-180 volume ratio) and Streptavidin-XL665 (46.7 nM) in EDTA-containing detection buffer, then incubated at room temperature for 1 hour, and read with a PHERAstar plate reader (excitation=337 nm, emission=620 nm and 665 nm).

EGFR L858R = EGFR L858R (Homo sapiens (Human), UniProt P00533, L858R); assay: HTRF-based EGFR biochemical assay (L858R); settings: 100 μM ATP, enzyme 0.1 nM
Chain of EGFR L858R (P00533 25-1210 L858R): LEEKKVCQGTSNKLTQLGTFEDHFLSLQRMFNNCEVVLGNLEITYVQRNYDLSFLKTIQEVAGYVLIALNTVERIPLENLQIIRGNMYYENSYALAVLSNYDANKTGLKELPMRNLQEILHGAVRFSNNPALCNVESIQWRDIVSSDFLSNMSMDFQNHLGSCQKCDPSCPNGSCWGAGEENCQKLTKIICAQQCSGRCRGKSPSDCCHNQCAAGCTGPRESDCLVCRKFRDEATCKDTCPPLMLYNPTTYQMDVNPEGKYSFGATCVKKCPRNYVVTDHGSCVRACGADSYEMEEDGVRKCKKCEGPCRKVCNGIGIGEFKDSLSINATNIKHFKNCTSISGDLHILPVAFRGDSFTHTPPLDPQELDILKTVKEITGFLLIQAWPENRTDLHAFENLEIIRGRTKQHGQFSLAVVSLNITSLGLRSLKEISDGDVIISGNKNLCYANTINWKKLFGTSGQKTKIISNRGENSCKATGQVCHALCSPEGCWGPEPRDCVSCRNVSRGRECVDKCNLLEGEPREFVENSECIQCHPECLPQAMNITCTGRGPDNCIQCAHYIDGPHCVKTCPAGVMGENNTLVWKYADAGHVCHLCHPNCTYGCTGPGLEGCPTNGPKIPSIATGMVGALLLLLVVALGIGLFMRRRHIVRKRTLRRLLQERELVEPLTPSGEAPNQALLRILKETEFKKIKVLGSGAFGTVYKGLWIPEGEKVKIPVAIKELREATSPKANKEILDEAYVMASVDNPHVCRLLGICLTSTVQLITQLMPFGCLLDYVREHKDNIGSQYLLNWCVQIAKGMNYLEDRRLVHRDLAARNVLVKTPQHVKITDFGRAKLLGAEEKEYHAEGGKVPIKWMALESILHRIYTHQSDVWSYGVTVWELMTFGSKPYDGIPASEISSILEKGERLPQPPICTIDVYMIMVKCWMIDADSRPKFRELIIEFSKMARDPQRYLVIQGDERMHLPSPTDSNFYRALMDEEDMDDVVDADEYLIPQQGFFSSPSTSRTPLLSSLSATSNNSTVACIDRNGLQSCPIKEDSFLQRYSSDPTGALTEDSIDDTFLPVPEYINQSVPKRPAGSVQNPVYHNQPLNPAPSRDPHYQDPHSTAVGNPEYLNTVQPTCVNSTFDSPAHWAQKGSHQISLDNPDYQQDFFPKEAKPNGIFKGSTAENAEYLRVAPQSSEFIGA
Method: as §1, §2

[1] = test system: EGFR mutant L858R/T790M Ba/F3 cells; assay: Ba/F3 cell proliferation model (Cell Titer Glo), EGFR L858R/T790M; type: cell-based, murine; settings: 72 hours
Excerpt: Example 26: Ba/F3 Cell Proliferation Models
The EGFR mutant L858R and L858R/T790M Ba/F3 cells have been previously described (Zhou, W., et al. Nature 462, 2009, 1070-1074). All cell lines were maintained in RPM 1640 (Cellgro; Mediatech Inc., Herndon. CA) supplemented with 10% FBS, 100 units/mL penicillin, 100 units/mL streptomycin. The EGFR I941R mutation was introduced via site directed mutagenesis using the Quick Change Site-Directed Mutagenesis kit (Stratagene; La Jolla, CA) according to the manufacturer's instructions. All constructs were confirmed by DNA sequencing. The constructs were shuttled into the retroviral vector JP1540 using the Cre-recombination system (Agilent Technologies, Santa Clara, CA). Ba/F3 cells were then infected with retrovirus per standard protocols, as described previously (Zhou, et al, Nature 2009). Stable clones were obtained by selection in puromycin (2 μg/ml).
Growth and inhibition of growth was assessed by the Cell Titer Glo® assay (Promega, Madison, WI) and was performed according to the manufacturer's instructions. The Cell Titer Glo® assay is a luminescence-based method used to determine the number of viable cells based on quantitation of the ATP present, which is directly proportional to the amount of metabolically active cells present. Ba/F3 cells of different EGFR genotypes were exposed to compounds as a single agent or in combination with 1 μg/mL cetuximab for 72 hours and the number of cells used per experiment was determined empirically as has been previously established (Zhou, et al., Nature 2009). All experimental points were set up in triplicates in 384-well plates and all experiments were repeated at least three times. […] The curves were fitted using a non-linear regression model with a sigmoidal dose response.

[2] = Mus musculus, BaF3, single agent, read-out: Cell IC50 BaF3 EGFR L858R/T790M
[3] = in combination with 1 μg/mL cetuximab, read-out: Cell IC50 BaF3 EGFR L858R/T790M (+cetux.)

Chain of EGFR L858R/T790M (P00533 25-1210 T790M/L858R): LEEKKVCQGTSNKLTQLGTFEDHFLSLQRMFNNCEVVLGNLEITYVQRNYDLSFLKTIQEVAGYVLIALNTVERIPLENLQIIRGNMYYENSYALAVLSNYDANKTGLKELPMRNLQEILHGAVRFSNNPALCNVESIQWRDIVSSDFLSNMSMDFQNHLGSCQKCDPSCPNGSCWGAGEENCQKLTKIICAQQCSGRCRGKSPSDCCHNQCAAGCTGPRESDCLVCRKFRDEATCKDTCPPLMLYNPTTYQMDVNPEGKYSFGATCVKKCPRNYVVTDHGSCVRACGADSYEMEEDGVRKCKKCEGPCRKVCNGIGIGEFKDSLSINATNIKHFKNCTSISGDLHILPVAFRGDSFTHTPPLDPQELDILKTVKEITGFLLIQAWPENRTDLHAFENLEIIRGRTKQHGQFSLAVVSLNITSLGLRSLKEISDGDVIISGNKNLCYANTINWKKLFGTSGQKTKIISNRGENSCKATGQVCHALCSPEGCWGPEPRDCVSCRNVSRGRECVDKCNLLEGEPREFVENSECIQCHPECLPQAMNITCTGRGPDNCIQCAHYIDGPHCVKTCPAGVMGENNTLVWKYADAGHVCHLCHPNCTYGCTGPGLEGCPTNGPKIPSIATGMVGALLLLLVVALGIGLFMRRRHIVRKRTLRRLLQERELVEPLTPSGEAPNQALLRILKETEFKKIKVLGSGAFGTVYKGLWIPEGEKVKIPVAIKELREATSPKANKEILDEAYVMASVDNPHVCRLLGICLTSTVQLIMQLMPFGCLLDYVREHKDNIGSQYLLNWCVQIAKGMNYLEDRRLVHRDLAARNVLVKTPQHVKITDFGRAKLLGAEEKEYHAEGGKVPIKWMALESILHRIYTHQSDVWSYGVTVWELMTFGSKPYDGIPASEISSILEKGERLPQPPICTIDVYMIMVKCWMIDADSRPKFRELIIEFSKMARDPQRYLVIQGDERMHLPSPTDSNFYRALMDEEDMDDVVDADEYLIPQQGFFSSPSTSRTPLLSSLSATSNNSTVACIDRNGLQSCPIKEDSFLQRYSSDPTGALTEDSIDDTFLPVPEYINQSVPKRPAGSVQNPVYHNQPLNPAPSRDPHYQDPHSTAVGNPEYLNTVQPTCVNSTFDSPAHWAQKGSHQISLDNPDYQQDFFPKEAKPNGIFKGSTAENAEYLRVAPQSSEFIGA

SMILES | IC50 (EGFR L858R/T790M) | IC50 (EGFR L858R) | further results
CN1CCC(c2ccc(-c3ccc4c(=O)n([C@H](c5nc6ccccc6[nH]5)c5cc(F)ccc5O)ccc4c3)cc2)CC1 (single isomer, unassigned) [Compound 115] | 157 nM | 132 nM | 
[2H]C(c1nc2ccccc2[nH]1)(c1cc(F)ccc1O)n1ccc2cc(-c3ccc(C4CCN(C)CC4)cc3)cc(F)c2c1=O (centres unmarked) [Compound 113, 2-[1H-Benzimidazol-2-yl-deuterio-(5-fluoro-2-hydroxy-phenyl)methyl]-8-fluoro-6-[4-(1-methyl-4-piperidyl)phenyl]isoquinolin-1-one] | 4 nM | 14 nM | 
CN1CCC(c2ccc(-c3ccc4c(c3)C(=S)N([C@H](c3nc5ccccc5[nH]3)c3cc(F)ccc3O)C4)cc2)CC1 (single isomer, unassigned) [Compound 084] | 232 nM | 219 nM | 
CN1CCC(c2ccc(-c3ccc4c(=O)n([C@H](c5nc6ccccc6[nH]5)c5cc(F)ccc5O)ccc4c3)cc2)CC1 (single isomer, unassigned) [Compound 068] | 166 nM | 756 nM | 
CN1CCC(c2ccc(-c3ccc4c(=O)n([C@@H](c5nc6ccccc6[nH]5)c5cc(F)ccc5O)ccc4c3)cc2)CC1 (single isomer, unassigned) [Compound 114] | 0.9 nM | 2 nM | 
Cc1c[nH]c([C@@H](c2cc(F)ccc2O)N2Cc3ccc(-c4ccc(C5CCN(C)CC5)cc4)cc3C2=O)n1 (single isomer, unassigned) [Compound 104] | 2 nM | 1 nM | 
[2H][C@](c1nc2ccccc2[nH]1)(c1cc(F)ccc1O)N1Cc2ccc(-c3ccc(C4CCN(C)CC4)cc3)cc2C1=O (single isomer, unassigned) [Compound 038] |  |  | IC50 [1, 2]: 930 nM; IC50 [1, 3]: 41 nM
CN1CCC(c2ccc(-c3ccc4cn(C(c5nc6c(F)cccc6[nH]5)c5cc(F)ccc5O)nc4c3F)cc2)CC1 (centres unmarked) [Compound 101, 4-Fluoro-2-((4-fluoro-1H-benzo[d]-imidazol-2-yl)(7-fluoro-6-(4-(1-methylpiperidin-4-yl)phenyl)-2H-indazol-2-yl)methyl)phenol; trifluoroacetate] | 0.8 nM | 4 nM | 
[2H][C@@](c1nc2ccccc2[nH]1)(c1cc(F)ccc1O)N1Cc2ccc(-c3ccc(C4CCN(C)CC4)cc3)cc2C1=O (single isomer, unassigned) [Compound 037] |  |  | IC50 [1, 2]: 160 nM; IC50 [1, 3]: 4 nM
Cc1cc2cn(C(c3nc4ccccc4[nH]3)c3cc(F)ccc3O)nc2cc1-c1ccc(C2CCN(C)CC2)cc1 (centres unmarked) [Compound 098, 2-[1H-Benzimidazol-2-yl-[5-methyl-6-[4-(1-methyl-4-piperidyl)phenyl]-indazol-2-yl]methyl]-4-fluoro-phenol; dihydrochloride] | 4 nM | 6 nM | 
CN1CCC(c2ccc(-c3cc(F)c4c(=O)n([C@@H](c5nc6ccccc6[nH]5)c5cc(F)ccc5O)ccc4c3)cc2)CC1 (single isomer, unassigned) [Compound 116, dihydrochloride] |  |  | IC50 (EGFR L858R/T790M; dihydrochloride): 0.2 nM; IC50 (EGFR L858R; dihydrochloride): 0.8 nM
CN1CCC2(c3ccc(-c4cc(F)c5c(=O)n(C(c6nc7ccccc7[nH]6)c6cc(F)ccc6O)ccc5c4)cc3)CC2C1 (centres unmarked) [Compound 110, 2-[1H-Benzimidazol-2-yl-(5-fluoro-2-hydroxy-phenyl)methyl]-8-fluoro-6-4-(3-methyl-3-azabicyclo[4.1.0]-heptan-6-yl)phenyl]isoquinolin-1-one; dihydrochloride] | 0.6 nM | 3 nM | 
CN1CCC(c2ccc(-c3cc(F)c4c(=O)n([C@H](c5nc6ccccc6[nH]5)c5cc(F)ccc5O)ccc4c3)cc2)CC1 (single isomer, unassigned) [Compound 117, 2-[1H-Benzimidazol-2-yl-(5-fluoro-2-hydroxy-phenyl)methyl-8-fluoro-6-[3-fluoro-4-(1-methyl-4-piperidyl)phenyl]isoquinolin-1-one; dihydrochloride] |  |  | IC50 (EGFR L858R/T790M; dihydrochloride): 81 nM; IC50 (EGFR L858R; dihydrochloride): > 100 nM
Cc1c(-c2ccc(C3CCN(C)CC3)cc2)ccc2cn(C(c3nc4ccccc4[nH]3)c3cc(F)ccc3O)nc12 (centres unmarked) [Compound 096, 2-[1H-Benzimidazol-2-yl-[7-methyl-6-[4-(1-methyl-4-piperidyl)phenyl]indazol-2-yl]methyl]-4-fluoro-phenol; dihydrochloride] | 0.8 nM | 3 nM | 
CN1CCC2(c3ccc(-c4ccc5c(=O)n(C(c6nc7ccccc7[nH]6)c6cc(F)ccc6O)ccc5c4)cc3)CC2C1 (centres unmarked) [Compound 108, 2-[1H-Benzimidazol-2-yl-(5-fluoro-2-hydroxy-phenyl)methyl]-6-[4-(3-methyl-3-azabicyclo[4.1.0]heptan-6-yl)phenyl]isoquinolin-1-one; dihydrochloride] | 2 nM | 5 nM | 
CN1CCC(c2ccc(-c3ccc4c(c3)C(=O)N([C@H](c3nc5ccccc5[nH]3)c3cc(F)ccc3O)C4)cc2)CC1 (single isomer, unassigned) [Compound 037] | 0.5 nM | 1.4 nM | 
CN1CCC(c2ccc(-c3cc(F)c4c(=O)n(C(c5nc6ccccc6[nH]5)c5cc(F)ccc5O)ccc4c3)cc2F)CC1 (centres unmarked) [Compound 111, 2-[1H-Benzimidazol-2-yl-(5-fluoro-2-hydroxy-phenyl)methyl]-8-fluoro-6-[3-fluoro-4-(1-methyl-4-piperidyl)-phenyl]isoquinolin-1-one; dihydrochloride] | 0.6 nM | 3 nM | 
CN1CCC(c2ccc(-c3cc(F)c4c(=O)n([C@H](c5nc6ccccc6[nH]5)c5cc(F)ccc5O)ccc4c3)cc2)CC1 (single isomer, unassigned) [Compound 066] | 3 nM | 14 nM | 
CN1CCC(c2ccc(-c3ccc4c(c3)C(=O)N(C(c3nc5ccccc5[nH]3)c3cccc(Cl)c3O)C4)cc2)CC1 (centres unmarked) [Compound 043, 2-[1H-benzimidazol-2-yl-(3-chloro-2-hydroxy-phenyl)-methyl]-6-[4-(1-methyl-4-piperidyl)phenyl]isoindolin-1-one; dihydrochloride] |  |  | IC50 [1, 2]: 4940 nM; IC50 [1, 3]: 580 nM
O=C1c2cc(-c3ccc(N4CCNCC4)cc3)ccc2CN1C(c1nc2ccccc2[nH]1)c1cc(F)ccc1O (centres unmarked) [Compound 021, 2-[1H-Benzimidazol-2-yl-(5-fluoro-2-hydroxy-phenyl)methyl]-6-(4-piperazin-1-yiphenyl)isoindolin-1-one;hydrochioride] |  |  | IC50 [1, 2]: 1650 nM; IC50 [1, 3]: 20 nM

Now from value to compound, other results behind:

IC50 (EGFR L858R/T790M) | IC50 (EGFR L858R) | SMILES | further results
6 nM | 18 nM | CN1CCC(c2ccc(-c3ccc4c(c3)C(=O)N([C@@H](c3nc5ccccc5[nH]3)c3cc(F)ccc3O)C4)cc2)CC1 (single isomer, unassigned) [Compound 038] | 
17 nM | 71 nM | CN1CCC(c2ccc(-c3ccc4c(n3)C(=O)N([C@H](c3nc5ccccc5[nH]3)c3cc(F)ccc3O)C4)cc2)CC1 (single isomer, unassigned) [Compound 107] | 
59 nM | 92 nM | Cc1c[nH]c([C@H](c2cc(F)ccc2O)N2Cc3ccc(-c4ccc(C5CCN(C)CC5)cc4)c(F)c3C2=O)n1 (single isomer, unassigned) [Compound 095] | 
2 nM | 3 nM | [2H]C(c1nc2ccccc2[nH]1)(c1cc(F)ccc1O)n1ccc2cc(-c3ccc(C4CCN(C)CC4)cc3)ccc2c1=O (centres unmarked) [Compound 112, 2-[1H-Benzimidazol-2-yl-deuterio-(5-fluoro-2-hydroxy-phenyl)methyl]-6-[4-(1-methyl-4-piperidyl)phenyl]isoquinolin-1-one] | 
0.8 nM | 3 nM | CN1CCC(c2ccc(-c3ccc4c(n3)C(=O)N([C@@H](c3nc5ccccc5[nH]3)c3cc(F)ccc3O)C4)cc2)CC1 (single isomer, unassigned) [Compound 106] | 
